Common to all, as to format: in vivo
The test system of assay [1] is Spodoptera littoralis (Egyptian cotton leaf worm). Put plainly: Spodoptera littoralis larvicide L1, feeding/contact, cotton leaf discs. The following applies: single compound. An excerpt: (§1) The action to be expected E for a given active ingredient combination obeys the so-called COLBY formula and can be calculated as follows (COLBY, S.R. “Calculating synergistic and antagonistic responses of herbicide combination”. Weeds, Vol. 15, pages 20-22; 1967):
(§2) ppm=milligrams of active ingredient (=a.i.) per liter of spray mixture X=% action by active ingredient A) using p ppm of active ingredient Y=% action by active ingredient B) using q ppm of active ingredient.
(§3) According to COLBY, the expected (additive) action of active ingredients A)+B) using p+q ppm of active ingredient is
(§4) If the action actually observed (O) is greater than the expected action (E), then the action of the combination is super-additive, i.e. there is a synergistic effect. In mathematical terms the synergism factor SF corresponds to O/E. In the agricultural practice an SF of ≧1.2 indicates significant improvement over the purely complementary addition of activities (expected activity), while an SF of ≦0.9 in the practical application routine signals a loss of activity compared to the expected activity.
Spodoptera Littoralis (Egyptian Cotton Leaf Worm)
(Larvicide L1, Feeding/Contact)
Cotton leaf discs are placed on agar in Petri dishes and sprayed with test solutions in an application chamber. After drying, the leaf discs are infested with 10 L1 larvae. The samples are checked for mortality 5 days after treatment. 3 replicates per treatment were evaluated. (1 PPM=1 mg l^−1)

In assay [2] the test system is Tetranychus urticae (two spotted spider mite). Put plainly: Tetranychus urticae contact/feeding activity on bean plants, adult mortality.
Source text: as §1, §2, §3, §4
Tetranychus Urticae (Two Spotted Spider Mite)
(Contact/Feeding Activity)
Bean plants are infested with mite populations of mixed ages. 1 day after infestation, plants are treated in a spray chamber with diluted test solutions. 1 and 8 days later, samples are checked for adult mortality. 2 replicates per treatment were evaluated.

The subject of assay [3] is Heliothis virescens (tobacco budworm). Description: Heliothis virescens ovo-larvicide, feeding/contact, eggs on filter paper in Petri dishes. The following applies: for AVERAGE DEAD IN % (EGGS) / AVERAGE DEAD IN % (LARVAE): single compound, 7 days; for activity on eggs: egg mortality, 7 days incubation.
Source text: as §1, §2, §3, §4
Heliothis Virescens (Tobacco Budworm):
(Ovo-Larvicide, Feeding/Contact)
30-35 fresh eggs (0-24 h old), deposited on filter paper, are placed in Petri dishes on top of a layer of artificial diet and 0.8 ml of diluted test solutions are pipetted onto them. After an incubation period of 7 days, samples are checked for egg and larval mortality. 3 replicates per treatment were evaluated.

For assay [4] the test system is unchanged. Put plainly: Heliothis virescens eggs in 24-well microtiter plate on artificial diet, larval mortality. The following applies: Heliothis virescens, 96 h, read-out: AVERAGE DEAD IN %.
Source text: as §1, §2, §3, §4
Heliothis Virescens (Tobacco Budworm)
Eggs (0-24 h old) are placed in 24-well microtiter plate on artificial diet and treated with test solutions (DMSO) by pipetting. After an incubation period of 4 days, samples are checked for larval mortality.

The mark [5] stands for this setting: single compound at 0.025 ppm AI.

Structures are written as SMILES. Values joined by “and” are separate entries in the source; they are usually repeats but may differ in a detail not shown here. Equal values may be shown once. Read-outs that look alike come from different tables or passages of the source.

For `CC1(C)[C@H](C(=O)O[C@H](C#N)c2cccc(Oc3ccccc3)c2)[C@@H]1/C=C(\Cl)C(F)(F)F` (racemic) [Lambda Cyhalothrin, lambda-cyhalothrin], the “AVERAGE DEAD IN % AFTER 5 DAYS” value in assay [1] (0.05 PPM AI) was 10% and 20%; in assay [1] (0.05 ppm AI) it was 20%; in assay [1] (0.1 ppm AI) it was 37%; in assay [1] (0.2 ppm AI), 57%. For the same molecule, the “AVERAGE DEAD IN % AFTER 1 DAY” value in assay [2] (3.125 ppm alone) worked out at 70%; in assay [2] (6.25 ppm alone), 90%; in assay [2] (12.5 ppm alone), 83%; in assay [2] (Lambda Cyhalothrin alone 3.125 ppm AI), 25%; in assay [2] (Lambda Cyhalothrin alone 6.25 ppm AI), 55%; in assay [2] (Lambda Cyhalothrin alone 12.5 ppm AI), 88%. Moreover, the “AVERAGE DEAD IN % AFTER 8 DAYS” value was 85% and 90% in assay [2] (6.25 ppm alone); 98% and 90% in assay [2] (12.5 ppm alone). The figures for the “AVERAGE DEAD IN % (EGGS)” value in assay [3] (0.05 ppm AI), in assay [3] (0.1 ppm AI) and in assay [3] (0.2 ppm AI) were 0%, 17% and 50%, respectively. The “AVERAGE DEAD IN % (LARVAE)” value in assay [3] (0.05 ppm AI, larvae) came out at 33%; in assay [3] (0.1 ppm AI, larvae) it was 100%; in assay [3] (0.2 ppm AI, larvae), 100%. Further, the pest or weed control at 0.00625 ppm in assay [4] (Lambda Cyhalothrin alone 0.00625 ppm AI) and in assay [4] (single compound at 0.00625 ppm AI) was 0% in each case. The pest or weed control at 0.0125 ppm in assay [4] (Lambda Cyhalothrin alone 0.0125 ppm AI) and in assay [4] (single compound at 0.0125 ppm AI) was 0% throughout. Also, the pest or weed control at 0.025 ppm in assay [4] (Lambda Cyhalothrin alone 0.025 ppm AI) and in assay [4] (setting [5]) was 0% in each case. In addition, the pest or weed control at 0.05 ppm in assay [4] (Lambda Cyhalothrin alone 0.05 ppm AI) and in assay [4] (single compound at 0.05 ppm AI) was 0% throughout. Further, the pest or weed control at 0.1 ppm in assay [4] (Lambda Cyhalothrin alone 0.1 ppm AI) and in assay [4] (single compound at 0.1 ppm AI) was 25% each time. Besides, the pest or weed control at 0.2 ppm in assay [4] (Lambda Cyhalothrin alone 0.2 ppm AI) and in assay [4] (single compound at 0.2 ppm AI) was 75% each time.
With `CCOP(=S)(OCC)Oc1nc(Cl)c(Cl)cc1Cl` [Chlorpyriphos, chlorpyrifos], the “AVERAGE DEAD IN % AFTER 5 DAYS” value was 10% and 7% in assay [1] (12.5 PPM AI); 17% and 10% in assay [1] (25 PPM AI); 30% and 20% in assay [1] (50 PPM AI). Moreover, the “AVERAGE DEAD IN % AFTER 8 DAYS” value came to 0% in assay [2] (50 ppm alone), 20% in assay [2] (100 ppm alone) and 63% in assay [2] (200 ppm alone). Also, the “AVERAGE DEAD IN % AFTER 1 DAY” value in assay [2] (Chlorpyrifos alone 50 ppm AI) turned out to be 0%; in assay [2] (Chlorpyrifos alone 100 ppm AI), 60%; in assay [2] (Chlorpyrifos alone 200 ppm AI) it was 88%. In addition, in assay [3], the activity on eggs entry was “inactive”. Also, the “AVERAGE DEAD IN % (LARVAE)” value in assay [3] (50 ppm AI, larvae) is listed as 0%; in assay [3] (100 ppm AI, larvae), 0%; in assay [3] (200 ppm AI, larvae) it was 30%. Besides, in assay [4] (single compound at 25 ppm AI), the pest or weed control at 25 ppm amounted to 45%. For the same molecule, the pest or weed control at 50 ppm in assay [4] (single compound at 50 ppm AI) was determined as 90%. Further, in assay [4] (single compound at 100 ppm AI), the pest or weed control at 100 ppm is 100%. In addition, the pest or weed control at 200 ppm in assay [4] (single compound at 200 ppm AI) is 100%. In addition, in assay [4] (single compound at 400 ppm AI), the pest or weed control at 400 ppm worked out at 100%. Moreover, the pest or weed control at 800 ppm in assay [4] (single compound at 800 ppm AI) stood at 100%.
Turning to `CNC(=O)c1cc(C#N)cc(C)c1NC(=O)c1cc(Br)nn1-c1ncccc1Cl` [Cyantraniliprole, cyantraniliprole], the “AVERAGE DEAD IN % AFTER 5 DAYS” value in assay [1] (0.0125 PPM AI) was 23%; in assay [1] (0.025 PPM AI) it was 27% and 30%; in assay [1] (0.05 PPM AI) it was 40% and 50%. Moreover, the “AVERAGE DEAD IN % AFTER 8 DAYS” value turned out to be 35% in assay [2] (100 ppm alone) and 25% in assay [2] (200 ppm alone). In addition, the “AVERAGE DEAD IN % AFTER 1 DAY” value in assay [2] (Cyantraniliprole alone 100 ppm AI) amounted to 0%; in assay [2] (Cyantraniliprole alone 200 ppm AI) it was 10%. In addition, the activity on eggs entry in assay [3] is “inactive”. For the same molecule, the “AVERAGE DEAD IN % (LARVAE)” value is 23% in assay [3] (0.2 ppm AI, larvae); 70% and 63% in assay [3] (0.4 ppm AI, larvae); 82% and 72% in assay [3] (0.8 ppm AI, larvae). In addition, the pest or weed control at 0.025 ppm in assay [4] (Cyantraniliprole alone 0.025 ppm AI) and in assay [4] (setting [5]) was 0% in each case. Besides, the pest or weed control at 0.05 ppm in assay [4] (Cyantraniliprole alone 0.05 ppm AI) and in assay [4] (single compound at 0.05 ppm AI) was 0% throughout. Besides, the pest or weed control at 0.1 ppm in assay [4] (Cyantraniliprole alone 0.1 ppm AI) and in assay [4] (single compound at 0.1 ppm AI) was 45% each time. Further, the pest or weed control at 0.2 ppm in assay [4] (Cyantraniliprole alone 0.2 ppm AI) and in assay [4] (single compound at 0.2 ppm AI) was 78% each time. Also, the pest or weed control at 0.4 ppm in assay [4] (Cyantraniliprole alone 0.4 ppm AI) and in assay [4] (single compound at 0.4 ppm AI) was 90% throughout. For the same molecule, the pest or weed control at 0.8 ppm in assay [4] (Cyantraniliprole alone 0.8 ppm AI) and in assay [4] (single compound at 0.8 ppm AI) was 100% in each case.
For `CC1=NNC(=O)N(/N=C/c2cccnc2)C1` [Pymetrozine, pymetrozine], the “AVERAGE DEAD IN % AFTER 5 DAYS” value is 17% and 7% in assay [1] (100 PPM AI); 7% in assay [1] (100 ppm AI); 20% and 17% in assay [1] (200 PPM AI); 17% in assay [1] (200 ppm AI). The “AVERAGE DEAD IN % AFTER 8 DAYS” value in assay [2] (200 ppm alone) is 0%. Besides, the “AVERAGE DEAD IN % AFTER 1 DAY” value in assay [2] (Pymetrozine alone 200 ppm AI) is recorded as 5%. In assay [3], the activity on eggs entry was “inactive”. Besides, the “AVERAGE DEAD IN % (LARVAE)” value turned out to be 0% in assay [3] (100 ppm AI, larvae); 37% in assay [3] (200 PPM AI); 40% in assay [3] (200 ppm AI, larvae). In addition, the pest or weed control at 25 ppm in assay [4] (Pymetrozine alone 25 ppm AI) and in assay [4] (single compound at 25 ppm AI) was 0% in each case. Also, the pest or weed control at 50 ppm in assay [4] (Pymetrozine alone 50 ppm AI) and in assay [4] (single compound at 50 ppm AI) was 0% in each case. Besides, the pest or weed control at 100 ppm in assay [4] (Pymetrozine alone 100 ppm AI) and in assay [4] (single compound at 100 ppm AI) was 0% in each case. Further, the pest or weed control at 200 ppm in assay [4] (Pymetrozine alone 200 ppm AI) and in assay [4] (single compound at 200 ppm AI) was 0% in each case. Also, the pest or weed control at 400 ppm in assay [4] (Pymetrozine alone 400 ppm AI) and in assay [4] (single compound at 400 ppm AI) was 0% throughout. Besides, the pest or weed control at 800 ppm in assay [4] (Pymetrozine alone 800 ppm AI) and in assay [4] (single compound at 800 ppm AI) was 0% each time.
